Five molecules from US7714173B2, “Method for purifying terephthalaldehyde” (LG Chem, Ltd., priority 2006, dated 2010) can be followed below.

The solubility is the concentration that dissolves in the medium under given conditions.

The structures appear in SMILES notation. ≈ marks a conversion by molar mass, not a printed value.

Data set [1] can be described thus: Stability of terephthalaldehyde in the dissolving solvent. The data set is classed as physicochemical. From the text: In a method for purifying terephthalaldehyde which comprises dissolving crude terephthalaldehyde in a solvent and then re-crystallizing the solution, using an anti-solvent, the present invention is characterized by using dimethylsulfoxide as the solvent. In the method for purifying terephthalaldehyde according to the present invention, usual alcohols or ethers may be used as a solvent dissolving terephthalaldehyde. However, dimethylsulfoxide according to the present invention has more excellent solubility of terephthalaldehyde and major impurities than those of the alcohols or the ethers, and may prepare terephthalaldehyde in a higher yield and purity.

The nature of data set [2]: Solubility of terephthalaldehyde and major impurities in water and dimethylsulfoxide. As to conditions: solvent H2O, measured at 25° C.
Where [3] appears, read: 25 °C, organic solvent or mixture.

With `O=Cc1ccc(O)cc1` [4-HBA, 4-hydroxybenzaldehyde], the solubility amounted to 1000 mg/mL (≈ 8190 mM) in the data set “physchem” (setting [3]) and 2.5 mg/mL (≈ 20.5 mM) in “physchem” (25 °C, water).
Consider `O=Cc1ccc(C=O)cc1` [terephthalaldehyde], for which, in data set [1] (alcohols such as methanol as solvent), the “Stability in alcohols such as methanol” value is listed as “changed into a material such as acetal”. Also, the Stability in dimethylsulfoxide result in data set [1] (dimethylsulfoxide as solvent) was “such change is not occurred”.
Take `O=C(O)c1ccc(C(=O)O)cc1` [TPA, terphthalic acid]: the “Solubility in H2O” value in data set [2] is <1.67 mg/mL.
On to `Oc1ccc(O)cc1` [HQ, hydroquinone], for which the solubility in “physchem” (setting [3]) stood at 1000 mg/mL (≈ 9080 mM); in the data set “physchem” (25 °C, water) it was 20 mg/mL (≈ 182 mM).
Consider `O=Cc1ccc(C(=O)O)cc1` [4-CBA, 4-carboxybenzaldehyde], for which the solubility was 1000 mg/mL (≈ 6660 mM) in the data set “physchem” (dimethylsulfoxide (DMSO), 25 °C, organic solvent or mixture) and < 1.67 mg/mL in “physchem” (water, 25 °C).
